Assay results from US12180193B2, “Accelerating fibrosarcoma protein degrading compounds and associated methods of use” (Arvinas Operations, Inc., priority 2020, dated 2024).
Where two headings read alike, the source gives them in different places.

Experiments:
BRAF V600E = target: T1, BRAF V600E (Homo sapiens, UniProt P15056, V600E); experiment: Cellular assay of target protein degradation, T-Rex 293 cells stably transfected with HA-BRAF_V600E (HA immunofluorescence, high content imaging); format: cell-based
T1 construct: expressed in transfected cells
Summary of the method: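 Doxycycline-induced (1 ng/mL) T-Rex 293 cells expressing HA-BRAF V600E treated 24 h at 37 °C with compound at 1 μM to 0.1 nM final in 0.1% DMSO. Remaining HA-tagged protein quantified by fixed-cell anti-HA immunofluorescence and high-content imaging; DC50 and Dmax (% of control) derived.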

BRAF G466V = target: T2, BRAF G466V (Homo sapiens, UniProt P15056, G466V); experiment: Cellular assay of target protein degradation, T-Rex 293 cells stably transfected with HA-BRAF G466V (HA immunofluorescence, high content imaging); format: cell-based
T2 construct: expressed in transfected cells
Summary of the method: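 Doxycycline-induced (0.75 ng/mL) cells treated 24 h at 37 °C with compound from 30 nM to 3 pM (0.1% DMSO). After fixation and permeabilisation, HA-tagged BRAF G466V immunostained and quantified by high-content imaging. DC50 and Dmax (percent of control) derived.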

[1] = half maximal degradation, T-Rex 293 HA-BRAF V600E; read-out: BRaf V600E DC50
[2] = maximum degradation observed, T-Rex 293 HA-BRAF V600E
[3] = half maximal degradation, T-Rex 293 HA-BRAF G466V; read-out: BRaf G466V DC50
[4] = maximum degradation observed, T-Rex 293 HA-BRAF G466V
[5] = read-out: BRaf V600E DC50; half maximal degradation, T-Rex 293 HA-BRAF V600E
[6] = read-out: BRaf G466V DC50; half maximal degradation, T-Rex 293 HA-BRAF G466V

T2 sequence (P15056 whole entry G466V): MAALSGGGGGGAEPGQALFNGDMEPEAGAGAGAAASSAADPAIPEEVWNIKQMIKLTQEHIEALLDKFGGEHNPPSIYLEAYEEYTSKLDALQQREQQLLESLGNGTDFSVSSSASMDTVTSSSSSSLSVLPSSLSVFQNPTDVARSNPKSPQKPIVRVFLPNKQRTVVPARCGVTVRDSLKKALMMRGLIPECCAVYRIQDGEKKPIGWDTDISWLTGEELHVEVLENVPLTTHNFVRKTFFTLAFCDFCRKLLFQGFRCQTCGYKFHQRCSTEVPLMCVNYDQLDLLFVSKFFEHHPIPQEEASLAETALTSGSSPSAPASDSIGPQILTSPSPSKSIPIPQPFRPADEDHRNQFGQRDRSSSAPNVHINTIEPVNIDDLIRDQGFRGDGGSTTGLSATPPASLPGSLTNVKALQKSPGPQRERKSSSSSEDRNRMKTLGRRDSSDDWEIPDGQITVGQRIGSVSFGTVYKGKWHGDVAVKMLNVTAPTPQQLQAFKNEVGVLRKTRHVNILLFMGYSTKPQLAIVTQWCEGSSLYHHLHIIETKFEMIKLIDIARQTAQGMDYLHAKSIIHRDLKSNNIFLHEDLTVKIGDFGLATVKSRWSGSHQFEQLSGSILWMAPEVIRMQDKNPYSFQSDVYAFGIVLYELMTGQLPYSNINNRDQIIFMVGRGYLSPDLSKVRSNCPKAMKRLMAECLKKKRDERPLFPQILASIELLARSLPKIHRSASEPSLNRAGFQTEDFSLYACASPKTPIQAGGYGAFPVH
T1 sequence (P15056 whole entry V600E): as the sequence (P15056 whole entry G466V) above, with V466G, V600E counted along it

## O=C1CCC(N2Cc3cc(N4CC5(CN(CC#Cc6ccc(-c7cnc8[nH]cc(C(=O)c9c(F)ccc(NS(=O)(=O)N%10CC[C@@H](F)C%10)c9F)c8c7)cc6)C5)C4)ccc3C2=O)C(=O)N1 (stereo partly drawn) [Compound 42, (3R)-N-(3-{5-[4-(3-{6-[2-(2,6-dioxopiperidin-3-yl)-1-oxo-2,3-dihydro-1H-isoindol-5-yl]-2,6-diazaspiro[3.3]heptan-2-yl}prop-1-yn-1-yl)phenyl]-1H-pyrrolo [2,3-b]pyridine-3-carbonyl}-2,4-difluorophenyl)-3-fluoropyrrolidine-1-sulfonamide]
BRAF V600E; [1]
  DC50: 5 to 50 nM
BRAF V600E; [2]
  Dmax: 35 to 70%
BRAF G466V; [3]
  DC50: 1 to 10 nM
BRAF G466V; [4]
  Dmax: 35 to 70%

## O=C1CCC(N2Cc3cc(N4CCC(CN5CC[C@@H]6CN(c7ccc(-c8cnc9[nH]cc(C(=O)c%10c(F)ccc(NS(=O)(=O)N%11CC[C@@H](F)C%11)c%10F)c9c8)cc7)C[C@@H]6C5)CC4)ccc3C2=O)C(=O)N1 (stereo partly shown) [Compound 309]
BRAF V600E; [1]
  DC50: 5 to 50 nM
BRAF V600E; [2]
  Dmax: 35 to 70%
BRAF G466V; [3]
  DC50: 1 to 10 nM
BRAF G466V; [4]
  Dmax: > 70%

## O=C1CC[C@H](N2Cc3cc(CN4C[C@@H]5CN(c6ccc(-c7cnc8[nH]cc(C(=O)c9c(F)ccc(NS(=O)(=O)N%10CC[C@@H](F)C%10)c9F)c8c7)cc6)C[C@@H]5C4)ccc3C2=O)C(=O)N1 [Compound 76, (3R)-N-[3-(5-{4-[(3aR,6aS)-5-({2-[(3S)-2,6-dioxopiperidin-3-yl]-1-oxo-2,3-dihydro-1H-isoindol-5-yl}methyl)-octahydropyrrolo[3,4-c]pyrrol-2-yl]phenyl}-1H-pyrrolo[2,3-b]pyridine-3-carbonyl)-2,4-difluorophenyl]-3-fluoropyrrolidine-1-sulfonamide]
BRAF V600E; [1]
  DC50: 5 to 50 nM
BRAF V600E; [2]
  Dmax: 35 to 70%
BRAF G466V; [3]
  DC50: > 30 nM

## O=C1CC[C@H](N2Cc3cc(C4CCN(CC5CCN(c6ccc(-c7cnc8[nH]cc(C(=O)c9c(F)ccc(NS(=O)(=O)CCO)c9F)c8c7)cc6)CC5)CC4)ccc3C2=O)C(=O)N1 [Compound 282, N-{3-[5-(4-{4-[(4-{2-[(3S)-2,6-dioxopiperidin-3-yl]-1-oxo-2,3-dihydro-1H-isoindol-5-yl}piperidin-1-yl)methyl]piperidin-1-yl}phenyl)-1H-pyrrolo[2,3-b]pyridine-3-carbonyl]-2,4-difluorophenyl}-2-hydroxyethane-1-sulfonamide]
BRAF V600E; [1]
  DC50: 50 to 500 nM
BRAF V600E; [2]
  Dmax: 35 to 70%
BRAF G466V; [3]
  DC50: 1 to 10 nM
BRAF G466V; [4]
  Dmax: > 70%

## CCCS(=O)(=O)Nc1ccc(F)c(C(=O)c2c[nH]c3ncc(-c4ccc(N5CCC(CN6CCC(c7ccc8c(c7)CN([C@H]7CCC(=O)NC7=O)C8=O)CC6)CC5)cc4)cc23)c1F [Compound 234, N-{3-[5-(4-{4-[(4-{2-[(3S)-2,6-dioxopiperidin-3-yl]-1-oxo-2,3-dihydro-1H-isoindol-5-yl}piperidin-1-yl)methyl]piperidin-1-yl}phenyl)-1H-pyrrolo[2,3-b]pyridine-3-carbonyl]-2,4-difluorophenyl}propane-1-sulfonamide]
BRAF V600E; [1]
  DC50: 5 to 50 nM
BRAF V600E; [2]
  Dmax: 35 to 70%
BRAF G466V; [3]
  DC50: < 1 nM
BRAF G466V; [4]
  Dmax: > 70%

## O=C1CCC(NC(=O)N2CCCc3c(C4CCN(CC5CCN(c6ccc(-c7cnc8[nH]cc(C(=O)c9c(F)ccc(NS(=O)(=O)N%10CC[C@@H](F)C%10)c9F)c8c7)cc6)CC5)CC4)ccnc32)C(=O)N1 (stereo partly drawn) [Compound 364, 5-(1-{[1-(4-{3-[2,6-difluoro-3-({[(3R)-3-fluoropyrrolidin-1-yl]sulfonyl}amino)benzoyl]-1H-pyrrolo[2,3-b]pyridin-5-yl}phenyl)piperidin-4-yl]methyl}piperidin-4-yl)-N-(2,6-dioxopiperidin-3-yl)-1,2,3,4-tetrahydro-1,8-naphthyridine-1-carboxamide]
BRAF V600E; [2]
  Dmax: 35 to 70%
BRAF V600E; [5]
  DC50: 5 to 50 nM
BRAF G466V; [4]
  Dmax: > 70%
BRAF G466V; [6]
  DC50: 1 to 10 nM

## COc1cc(N2CC3(CN(CC4CCN(c5ccc(-c6cnc7[nH]cc(C(=O)c8c(F)ccc(NS(=O)(=O)N9CC[C@@H](F)C9)c8F)c7c6)cc5)CC4)C3)C2)cc2c1C(=O)N([C@@H]1CCC(=O)NC1=O)C2 [Compound 250, (3R)-N-{3-[5-(4-{4-[(6-{2-[(3R)-2,6-dioxopiperidin-3-yl]-7-methoxy-1-oxo-2,3-dihydro-1H-isoindol-5-yl}-2,6-diazaspiro[3.3]heptan-2-yl)methyl]piperidin-1-yl}phenyl)-1H-pyrrolo [2,3-b]pyridine-3-carbonyl]-2,4-difluorophenyl}-3-fluoropyrrolidine-1-sulfonamide]
BRAF V600E; [1]
  DC50: 5 to 50 nM
BRAF V600E; [2]
  Dmax: < 35%
BRAF G466V; [3]
  DC50: 1 to 10 nM
BRAF G466V; [4]
  Dmax: > 70%

## O=C1CC[C@@H](N2Cc3cc(C[C@H](O)CN4CCN(c5ccc(-c6cnc7[nH]cc(C(=O)c8c(F)ccc(NS(=O)(=O)N9CC[C@@H](F)C9)c8F)c7c6)cc5)CC4)ccc3C2=O)C(=O)N1 [Compound 75, (3R)-N-{3-[5-(4-{4-[(2S)-3-{2-[(3R)-2,6-dioxopiperidin-3-yl]-1-oxo-2,3-dihydro-1H-isoindol-5-yl}-2-hydroxypropyl]piperazin-1-yl}phenyl)-1H-pyrrolo[2,3-b]pyridine-3-carbonyl]-2,4-difluorophenyl}-3-fluoropyrrolidine-1-sulfonamide]
BRAF V600E; [1]
  DC50: < 5 nM
BRAF V600E; [2]
  Dmax: 35 to 70%
BRAF G466V; [3]
  DC50: 1 to 10 nM
BRAF G466V; [4]
  Dmax: > 70%

## O=C1CCC(N2Cc3cc(C4CCN(CC[C@H]5CCN(c6ccc(-c7cnc8[nH]cc(C(=O)c9c(F)ccc(NS(=O)(=O)N%10CC[C@@H](F)C%10)c9F)c8c7)cc6)C5)CC4)ccc3C2=O)C(=O)N1 (stereo partly drawn) [Compound 217, (3R)-N-[3-(5-{4-[(3S)-3-(2-{4-[2-(2,6-dioxopiperidin-3-yl)-1-oxo-2,3-dihydro-1H-isoindol-5-yl]piperidin-1-yl}ethyl)pyrrolidin-1-yl]phenyl}-1H-pyrrolo [2,3-b]pyridine-3-carbonyl)-2,4-difluorophenyl]-3-fluoropyrrolidine-1-sulfonamide]
BRAF V600E; [1]
  DC50: 5 to 50 nM
BRAF V600E; [2]
  Dmax: 35 to 70%
BRAF G466V; [3]
  DC50: 10 to 30 nM
BRAF G466V; [4]
  Dmax: > 70%

## O=C1CCC(N2Cc3cc(C4CCN(CC5CC6(C5)CN(c5ccc(-c7cnc8[nH]cc(C(=O)c9c(F)ccc(NS(=O)(=O)N%10CC[C@@H](F)C%10)c9F)c8c7)cc5F)C6)CC4)ccc3C2=O)C(=O)N1 (stereo partly drawn) [Compound 319, (3R)-N-[3-(5-{4-[6-({4-[2-(2,6-dioxopiperidin-3-yl)-1-oxo-2,3-dihydro-1H-isoindol-5-yl]piperidin-1-yl}methyl)-2-azaspiro[3.3]heptan-2-yl]-3-fluorophenyl}-1H-pyrrolo[2,3-b]pyridine-3-carbonyl)-2,4-difluorophenyl]-3-fluoropyrrolidine-1-sulfonamide]
BRAF V600E; [2]
  Dmax: 35 to 70%
BRAF V600E; [5]
  DC50: 5 to 50 nM
BRAF G466V; [4]
  Dmax: > 70%
BRAF G466V; [6]
  DC50: 1 to 10 nM

## O=C1CC[C@@H](N2Cc3cc(C4CCN(CC5CCN(c6ccc(-c7cnc8[nH]cc(C(=O)c9c(F)ccc(NS(=O)(=O)N%10CC[C@@H](F)C%10)c9F)c8c7)cc6F)CC5)CC4)ccc3C2=O)C(=O)N1 [Compound 88, (3R)-N-{3-[5-(4-{4-[(4-{2-[(3R)-2,6-dioxopiperidin-3-yl]-1-oxo-2,3-dihydro-1H-isoindol-5-yl}piperidin-1-yl)methyl]piperidin-1-yl}-3-fluorophenyl)-1H-pyrrolo[2,3-b]pyridine-3-carbonyl]-2,4-difluorophenyl}-3-fluoropyrrolidine-1-sulfonamide]
BRAF V600E; [1]
  DC50: < 5 nM
BRAF V600E; [2]
  Dmax: 35 to 70%
BRAF G466V; [3]
  DC50: < 1 nM
BRAF G466V; [4]
  Dmax: > 70%

## O=C1CC[C@H](NC(=O)c2ccc(N3CCN(CCN4CCN(c5ccc(-c6cnc7[nH]cc(C(=O)c8c(F)ccc(NS(=O)(=O)N9CC[C@@H](F)C9)c8F)c7c6)cc5)CC4)CC3)cc2F)C(=O)N1 [Compound 377, 4-(4-{2-[4-(4-{3-[2,6-difluoro-3-({[(3R)-3-fluoropyrrolidin-1-yl]sulfonyl}amino)benzoyl]-1H-pyrrolo[2,3-b]pyridin-5-yl}phenyl)piperazin-1-yl]ethyl}piperazin-1-yl)-N-[(3S)-2,6-dioxopiperidin-3-yl]-2-fluorobenzamide]
BRAF V600E; [1]
  DC50: 5 to 50 nM
BRAF V600E; [2]
  Dmax: 35 to 70%
BRAF G466V; [3]
  DC50: 1 to 10 nM
BRAF G466V; [4]
  Dmax: 35 to 70%

## O=C1CCC(N2Cc3cc(OCCCCN4CCN(c5ccc(-c6cnc7[nH]cc(C(=O)c8c(F)ccc(NS(=O)(=O)N9CC[C@@H](F)C9)c8F)c7c6)cn5)CC4)ccc3C2=O)C(=O)N1 (stereo partly drawn) [Compound 120, (3R)-N-[3-(5-{6-[4-(4-{[2-(2,6-dioxopiperidin-3-yl)-1-oxo-2,3-dihydro-1H-isoindol-5-yl]oxy}butyl)piperazin-1-yl]pyridin-3-yl}-1H-pyrrolo[2,3-b]pyridine-3-carbonyl)-2,4-difluorophenyl]-3-fluoropyrrolidine-1-sulfonamide]
BRAF V600E; [1]
  DC50: 5 to 50 nM
BRAF V600E; [2]
  Dmax: 35 to 70%
BRAF G466V; [3]
  DC50: 1 to 10 nM
BRAF G466V; [4]
  Dmax: > 70%

## CN(CCN1CCN(c2ccc(-c3cnc4[nH]cc(C(=O)c5c(F)ccc(NS(=O)(=O)N6CC[C@@H](F)C6)c5F)c4c3)cc2)CC1)[C@H]1CC[C@H](Oc2ccc3c(c2)CN(C2CCC(=O)NC2=O)C3=O)CC1 (stereo partly drawn) [Compound 195, (3R)-N-[2,4-difluoro-3-(5-{4-[4-(2-{methyl[(1r,4r)-4-{[2-(2,6-dioxopiperidin-3-yl)-1-oxo-2,3-dihydro-1H-isoindol-5-yl]oxy}cyclohexyl]amino}ethyl)piperazin-1-yl]phenyl}-1H-pyrrolo[2,3-b]pyridine-3-carbonyl)phenyl]-3-fluoropyrrolidine-1-sulfonamide]
BRAF V600E; [1]
  DC50: 5 to 50 nM
BRAF V600E; [2]
  Dmax: 35 to 70%
BRAF G466V; [3]
  DC50: 1 to 10 nM
BRAF G466V; [4]
  Dmax: 35 to 70%
